Source: patent US20220153734A1, “Pyrazolopyridine Compounds For IRE1 Inhibition” (Optikira, LLC, priority 2019, published 2022)

Experiments:
[1] = molecular target: T1, IRE1α (Homo sapiens, UniProt O75460); assay: Biochemical assay: inhibition of RNase activity of IRE1α; details: enzyme 0.325 nM, substrate 100 nM, 20 minutes
T1 construct: purchased Signal Chem E31-11G
Protocol: Biochemical Assay: Inhibition of RNase Activity of IRE1α
The RNase reactions were performed in 384 well black ProxiPlate-384 Plus plates (PERKIN Elmer) using 50 mM Tris assay buffer with 0.5 mM MgCl2, 10 mM KCl, 0.03% Tween, 2 mM DTT and 1% DMSO. Test compounds were prepared on the day of assay and dispensed using D300 digital dispenser as a 10-point ½ log dilution series in duplicate, normalized to a final DMSO concentration of […]. Test compounds were pre-incubated for 30 min at room temperature with IRE1α kinase (E31-11G from Signal Chem) in 2.5 μL of assay buffer. Then 2.5 μl of assay buffer containing substrate (5′ Alexa Fluor 647-rCrArU rGrUrC rCrGrC rArGrC rGrCrArUrG-Iowa Black RQ quencher 3′) added, giving a final concentration of enzyme of 0.325 nM and of substrate of 100 nM. After 20 minutes incubation at room temperature the reactions were stopped by added 5 μL of 5M urea, incubated at room temperature for 10 minutes and fluorescence measured on a plate reader (EnVision, PerkinElmer). IC50 values calculated by fitting a sigmoidal curve to percent inhibition of control versus compound concentration.

[2] = system: ARPE-19 cells stably expressing XBP1 (a.a. 1-376); assay: Cellular XBP1 splicing assay (NanoLuc luciferase, thapsigargin); type: cell-based; details: thapsigargin 150 nM
Protocol: Cellular XBP1 Splicing Assay
ARPE-19 cells stably expressing XBP1 (a.a. 1-376) with nano-luciferase gene sequence linked so it is in frame when XBP1 is spliced, were cultured in F12 media, 10% FBS, 0.044% sodium bicarbonate, 150 μg/ml hygromycin B and seeded for assays at 5,000 cells in 384 well plates in culture media without hygromycin B and incubated at 37° C./5% CO2. After overnight incubation test compounds were added to the cell plate in a 10-point ½ log dilution series in duplicate (final DMSO concentration 0.117%). After further incubation of 30 minutes thapsigargin was added (final concentration 150 nM) and then another 4 hour incubation. A NanoLuc luciferase assay (Promega) was used according to the manufacturer's instructions to detect the luciferase and luminescence measured on a luminometer (EnVision, PerkinElmer). IC50 values calculated by fitting a sigmoidal curve to percent inhibition of control of compound concentration.

T1 sequence (O75460 468-977 limits assumed): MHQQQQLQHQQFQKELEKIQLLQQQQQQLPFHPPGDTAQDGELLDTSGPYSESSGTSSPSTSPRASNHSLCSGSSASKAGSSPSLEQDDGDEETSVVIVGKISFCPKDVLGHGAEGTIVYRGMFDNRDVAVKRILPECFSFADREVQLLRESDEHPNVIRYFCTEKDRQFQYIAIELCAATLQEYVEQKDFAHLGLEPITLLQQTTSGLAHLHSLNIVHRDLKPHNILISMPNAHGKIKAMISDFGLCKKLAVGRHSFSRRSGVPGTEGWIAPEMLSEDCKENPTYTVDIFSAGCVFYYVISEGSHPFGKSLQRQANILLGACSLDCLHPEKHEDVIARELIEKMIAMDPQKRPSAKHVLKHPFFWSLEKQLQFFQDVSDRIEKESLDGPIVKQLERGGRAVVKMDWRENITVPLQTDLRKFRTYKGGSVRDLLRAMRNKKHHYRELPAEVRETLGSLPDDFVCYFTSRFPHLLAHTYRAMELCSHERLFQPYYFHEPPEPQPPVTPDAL

Row | Compound | IC50 [1] [nM] | IC50 ([2]; 4 hour) [nM] | IC50 ([2]; Homo sapiens, ARPE-19, 4 h) [nM]
1 | COCCN[C@H]1CC[C@H](c2cnc(N)c3c(-c4cc(F)c(NS(=O)(=O)c5ccc(Cl)cc5)cc4F)nn(C(C)C)c32)CC1 [Compound A14, N-(4-(4-amino-1-isopropyl-7-((1r,4r)-4-((2-methoxyethyl)amino)cyclohexyl)-1H-pyrazolo[4,3-c]pyridin-3-yl)-2,5-difluorophenyl)-4-chlorobenzenesulfonamide] | 21 |  | 240
2 | COCCN[C@H]1CC[C@H](c2cnc(N)c3c(-c4cc(F)c(NS(=O)(=O)c5c(F)cccc5F)cc4F)nn(C(C)C)c32)CC1 [Compound A23, N-(4-(4-amino-1-isopropyl-7-((1r,4r)-4-((2-methoxyethyl)amino)cyclohexyl)-1H-pyrazolo[4,3-c]pyridin-3-yl)-2,5-difluorophenyl)-2,6-difluorobenzenesulfonamide] | 9.7 |  | 160
3 | COCCN[C@H]1CC[C@H](c2cnc(N)c3c(-c4cc(F)c(NS(=O)(=O)c5cc(C#N)ccc5F)cc4F)nn(C(C)C)c32)CC1 [Compound A21, N-(4-(4-amino-1-isopropyl-7-((1r,4r)-4-((2-methoxyethyl)amino)cyclohexyl)-1H-pyrazolo[4,3-c]pyridin-3-yl)-2,5-difluorophenyl)-5-cyano-2-fluorobenzenesulfonamide] | 4.7 |  | 3800
4 | COCCN[C@H]1CC[C@H](c2cnc(N)c3c(-c4cc(F)c(NS(=O)(=O)c5cccc(F)c5F)cc4F)nn(C(C)C)c32)CC1 [Compound A25, N-(4-(4-amino-1-isopropyl-7-((1r,4r)-4-((2-methoxyethyl)amino)cyclohexyl)-1H-pyrazolo[4,3-c]pyridin-3-yl)-2,5-difluorophenyl)-2,3-difluorobenzenesulfonamide] | 9 |  | 25
5 | CC(C)n1nc(-c2cc(F)c(NS(=O)(=O)c3ccccc3F)cc2F)c2c(N)ncc([C@H]3CC[C@H](N(C)C)CC3)c21 [Compound A40, N-(4-(4-amino-7-((1r,4r)-4-(dimethylamino)cyclohexyl)-1-isopropyl-1H-pyrazolo[4,3-c]pyridin-3-yl)-2,5-difluorophenyl)-2-fluorobenzenesulfonamide] | 5.6 |  | 27
6 | CC(C)n1nc(-c2cc(F)c(NS(=O)(=O)c3ccccc3F)cc2F)c2c(N)ncc([C@H]3CC[C@H](N4CCOCC4)CC3)c21 [Compound A3] | 16 |  | 15
7 | COCCN[C@H]1CC[C@H](c2cnc(N)c3c(-c4cc(F)c(NS(=O)(=O)Cc5ccc(F)cc5)cc4F)nn(C(C)C)c32)CC1 [Compound A17, N-(4-(4-amino-1-isopropyl-7-((1r,4r)-4-((2-methoxyethyl)amino)cyclohexyl)-1H-pyrazolo[4,3-c]pyridin-3-yl)-2,5-difluorophenyl)-1-(4-fluorophenyl)methanesulfonamide] | 0.9 |  | 12

Now from value to compound:

Row | IC50 [1] [nM] | IC50 ([2]; 4 hour) [nM] | IC50 ([2]; Homo sapiens, ARPE-19, 4 h) [nM] | Compound
8 | 120 | 250 |  | CC(C)n1nc(-c2ccc(NS(=O)(=O)c3ccccc3F)c(F)c2)c2c(N)ncc(C3=CCC(NC4COC4)CC3)c21 (single isomer, unassigned) [Compound B58, N-(4-(4-amino-1-isopropyl-7-(4-(oxetan-3-ylamino)cyclohex-1-en-1-yl)-1H-pyrazolo[4,3-c]pyridin-3-yl)-2-fluorophenyl)-2-fluorobenzenesulfonamide]
9 | 75 | 400 |  | CCn1nc(-c2ccc(NS(=O)(=O)c3ccccc3Cl)c(F)c2)c2c(N)ncc(C3=CCC(NC4COC4)CC3)c21 (single isomer, unassigned) [Compound B62, N-(4-(4-amino-1-ethyl-7-(4-(oxetan-3-ylamino)cyclohex-1-en-1-yl)-1H-pyrazolo[4,3-c]pyridin-3-yl)-2-fluorophenyl)-2-chlorobenzenesulfonamide]
10 | 5.6 | 97 |  | CCn1nc(-c2ccc(NS(=O)(=O)c3cc(Cl)ccc3F)c(F)c2)c2c(N)ncc(C3=CCC(NC4COC4)CC3)c21 (single isomer, unassigned) [Compound B38, N-(4-(4-amino-1-ethyl-7-(4-(oxetan-3-ylamino)cyclohex-1-en-1-yl)-1H-pyrazolo[4,3-c]pyridin-3-yl)-2-fluorophenyl)-5-chloro-2-fluorobenzenesulfonamide]
11 | 34 | 110 |  | CCn1nc(-c2ccc(NS(=O)(=O)c3ccccc3Cl)c(F)c2)c2c(N)ncc(C3=CCC(NC4COC4)CC3)c21 (single isomer, unassigned) [Compound B61, N-(4-(4-amino-1-ethyl-7-(4-(oxetan-3-ylamino)cyclohex-1-en-1-yl)-1H-pyrazolo[4,3-c]pyridin-3-yl)-2-fluorophenyl)-2-chlorobenzenesulfonamide]
12 | 60 | 100 |  | CCn1nc(-c2ccc(NS(=O)(=O)c3ccccc3F)c(F)c2)c2c(N)ncc(C3=CCC(NC4COC4)CC3)c21 (single isomer, unassigned) [Compound B33, N-(4-(4-amino-1-ethyl-7-(4-(oxetan-3-ylamino)cyclohex-1-en-1-yl)-1H-pyrazolo[4,3-c]pyridin-3-yl)-2-fluorophenyl)-2-fluorobenzenesulfonamide]
13 | 100 | 400 |  | CCn1nc(-c2ccc(NS(=O)(=O)c3ccccc3F)c(F)c2)c2c(N)ncc(C3=CCC(NC4COC4)CC3)c21 (single isomer, unassigned) [Compound B34, N-(4-(4-amino-1-ethyl-7-(4-(oxetan-3-ylamino)cyclohex-1-en-1-yl)-1H-pyrazolo[4,3-c]pyridin-3-yl)-2-fluorophenyl)-2-fluorobenzenesulfonamide]
14 | 1.6 | 10 |  | CC(CF)NC1CC=C(c2cnc(N)c3c(-c4ccc(NS(=O)(=O)Cc5ccccc5Cl)c(F)c4)nn(C(C)C)c23)CC1 (single isomer, unassigned) [Compound B44, N-(4-(4-amino-7-(4-((1-fluoropropan-2-yl)amino)cyclohex-1-en-1-yl)-1-isopropyl-1H-pyrazolo[4,3-c]pyridin-3-yl)-2-fluorophenyl)-1-(2-chlorophenyl)methanesulfonamide]
15 | 13 | 110 |  | Cc1ccc(F)c(S(=O)(=O)Nc2ccc(-c3nn(C(C)C)c4c(C5=CCC(NC6COC6)CC5)cnc(N)c34)cc2F)c1 (single isomer, unassigned) [Compound B16, N-(4-(4-amino-1-isopropyl-7-(4-(oxetan-3-ylamino)cyclohex-1-en-1-yl)-1H-pyrazolo[4,3-c]pyridin-3-yl)-2-fluorophenyl)-2-fluoro-5-methylbenzenesulfonamide]
16 | 0.5 | 5.1 |  | CC(F)CNC1CC=C(c2cnc(N)c3c(-c4ccc(NS(=O)(=O)Cc5ccccc5Cl)c(F)c4)nn(C(C)C)c23)CC1 (single isomer, unassigned) [Compound B43, N-(4-(4-amino-7-(4-((2-fluoropropyl)amino)cyclohex-1-en-1-yl)-1-isopropyl-1H-pyrazolo[4,3-c]pyridin-3-yl)-2-fluorophenyl)-1-(2-chlorophenyl)methanesulfonamide]
17 | 0.9 | 9 |  | COCCNC1CC=C(c2cnc(N)c3c(-c4ccc(NS(=O)(=O)Cc5ccccc5Cl)c(F)c4)nn(C(C)C)c23)CC1 (single isomer, unassigned) [Compound B55, N-(4-(4-amino-1-isopropyl-7-(4-((2-methoxyethyl)amino)cyclohex-1-en-1-yl)-1H-pyrazolo[4,3-c]pyridin-3-yl)-2-fluorophenyl)-1-(2-chlorophenyl)methanesulfonamide]
18 | 2.2 | 21 |  | Cc1ccc(F)c(S(=O)(=O)Nc2ccc(-c3nn(C(C)C)c4c(C5=CCC(NC6COC6)CC5)cnc(N)c34)cc2F)c1 (single isomer, unassigned) [Compound B17, N-(4-(4-amino-1-isopropyl-7-(4-(oxetan-3-ylamino)cyclohex-1-en-1-yl)-1H-pyrazolo[4,3-c]pyridin-3-yl)-2-fluorophenyl)-2-fluoro-5-methylbenzenesulfonamide]
19 | 4.5 | 17 |  | CC(F)CNC1CC=C(c2cnc(N)c3c(-c4ccc(NS(=O)(=O)c5ccccc5Cl)c(F)c4)nn(C(C)C)c23)CC1 (single isomer, unassigned) [Compound B47, N-(4-(4-amino-7-(4-((2-fluoropropyl)amino)cyclohex-1-en-1-yl)-1-isopropyl-1H-pyrazolo[4,3-c]pyridin-3-yl)-2-fluorophenyl)-2-chlorobenzenesulfonamide]
